Measured values published in ChEMBL document CHEMBL5385914 (J Med Chem, 2024).
Activity calls are given as the source filed them. The rule behind the calls is not given here.

Legend:
cells = details: Homo sapiens, A2780AD, 48 h
Tubulin [1] = biological target: Tubulin (Bos taurus, UniProt Q6B856+Q862L2+Q862F3); experiment: Displacement of fluorescent probe (R)-(+)-ethyl 5-amino2-methyl-1,2-dihydro-3-phenylpyrido[3,4-b]pyrazin-7-ylcarbamate from calf brain tubulin colchicine binding site assessed as dissociation constant at 0.05 to 70 uM incubated for 30 mins by fluorescence based assay
A2780 [2] = experiment: cells; details: Homo sapiens, A2780, 48 h
A549 [3] = experiment: cells; details: Homo sapiens, A549, 48 h
HeLa [4] = experiment: cells; details: Homo sapiens, 48 h
HeLa [5] = experiment: cells; details: Homo sapiens, 48 h; remark: listed apart in the source
Tubulin (Bos taurus) [6] = biological target: T1, Tubulin (Bos taurus) (UniProt Q6B856+Q862L2+Q862F3); experiment: Binding affinity to calf brain tubulin colchicine binding site assessed as Koff at 3 uM incubated for 30 mins by fluorescence based photon-counting instrument
HeLa [7] = experiment: cells; details: Homo sapiens
Description: Antiproliferative activity against human HeLa cells expressing tubulin betaIII assessed as inhibition of cell growth

A549 [8] = experiment: cells; details: Homo sapiens
Description: Antiproliferative activity against human A549 cells assessed as inhibition of cell growth

HeLa [9] = experiment: cells; details: Homo sapiens; remark: listed apart in the source
Description: Antiproliferative activity against human HeLa cells assessed as inhibition of cell growth

[10] = Antiproliferative activity against human A2780AD cells overexpressing P-gp assessed as inhibition of cell growth; format: functional, cell-based
A2780 [11] = experiment: Antiproliferative activity against human A2780 cells assessed as inhibition of cell growth; format: functional, cell-based
Tubulin [12] = experiment: Displacement of fluorescent probe (R)-(+)-ethyl 5-amino2-methyl-1,2-dihydro-3-phenylpyrido[3,4-b]pyrazin-7-ylcarbamate from tubulin colchicine binding site (unknown origin) assessed as dissociation constant; format: protein-complex assay, Homo sapiens
Tubulin (Homo sapiens) [13] = biological target: T2, Tubulin (Homo sapiens) (UniProt P68371+Q9H4B7+P0DPH7+P68366+Q13509+Q71U36+P04350+Q3ZCM7+P07437+P68363+Q9BQE3+Q6PEY2+Q13885+Q9BVA1+Q9BUF5)
Tubulin (Homo sapiens) [14] = biological target: T2, Tubulin (Homo sapiens); experiment: Disruption of microtubule network in human A549 cells assessed as disorganization of tubulin cytoskeleton during interphase incubated for 24 hrs by immunofluorescence staining based epifluorescence microscopic analysis; format: cell-based
NCI-H460 [15] = experiment: Antitumor activity against human NCI-H460 cells xenografted in athymic nu/nu mouse assessed as mean survival time at 1.1 mg/kg, iv administered once a week for 2 weeks; format: functional
NCI-H460 [16] = experiment: Antitumor activity against human NCI-H460 cells xenografted in athymic nu/nu mouse assessed as increase in apoptosis by measuring number of apoptotic nuclei in tumor at 2.5 mg/kg, iv administered once a week for 2 weeks and measured 24 hrs post last dose by Hoechst 33258 staining based fluorescence microscopic analysis (reference value: 1 +/- 0.1); format: functional; details: time 15 day
NCI-H460 [17] = experiment: Antitumor activity against human NCI-H460 cells xenografted in athymic nu/nu mouse assessed as mean survival time at 2.5 mg/kg, iv administered once a week for 2 weeks; format: functional
NCI-H460 [18] = experiment: Antitumor activity against human NCI-H460 cells xenografted in athymic nu/nu mouse assessed as median tumor volume at 0.75 mg/kg, iv measured on day 7 by digital caliper based analysis; format: functional; details: time 7 day
Tubulin (Bos taurus) [19] = biological target: T1, Tubulin (Bos taurus); experiment: Inhibition of calf brain tubulin assembly measured upto 100 mins; details: dose 0.625-5 µM
[20] = Toxicity in athymic nu/nu mouse xenografted with human NCI-H460 cells assessed as reduction in body weight at 2.5 mg/kg, iv measured on day 7; format: organism-based; set-up: scale not given: the % may be the effect or the level left; details: in vivo, 168 h, time 7 day
NCI-H460 [21] = experiment: Antitumor activity against human NCI-H460 cells xenografted in athymic nu/nu mouse assessed as increase in survival time at 0.75 mg/kg, iv administered once a week for 2 weeks; format: functional, organism-based
NCI-H460 [22] = experiment: Antitumor activity against human NCI-H460 cells xenografted in athymic nu/nu mouse assessed as mean survival time at 0.75 mg/kg, iv administered once a week for 2 weeks; format: functional
Tubulin (Homo sapiens) [23] = biological target: T2, Tubulin (Homo sapiens); experiment: Disruption of microtubule network in human A549 cells assessed as reduction in number and length of microtubules incubated for 24 hrs by immunofluorescence staining based epifluorescence microscopic analysis; format: cell-based
[24] = Toxicity in athymic nu/nu mouse xenografted with human NCI-H460 cells assessed as reduction in body weight at 2.5 mg/kg, iv measured on day 2; format: organism-based; set-up: scale not given: the % may be the effect or the level left; details: in vivo, 48 h, time 2 day
NCI-H460 [25] = experiment: Antitumor activity against human NCI-H460 cells xenografted in athymic nu/nu mouse assessed as increase in survival time at 1.1 to 2.5 mg/kg, iv administered once a week for 2 weeks; format: functional, organism-based; details: dose 1.1-2.5 mg/kg
Tubulin (Bos taurus) [26] = biological target: T1, Tubulin (Bos taurus); experiment: Displacement of 2-methoxy-5-(2,3,4-trimethoxyphenyl)-2,4,6-cycloheptatriene-1-one from calf brain tubulin colchicine site
NCI-H460 [27] = experiment: Antitumor activity against human NCI-H460 cells xenografted in athymic nu/nu mouse assessed as median tumor volume at 2.5 mg/kg, iv measured on day 7 by digital caliper based analysis; format: functional; details: time 7 day
NCI-H460 [28] = experiment: Antitumor activity against human NCI-H460 cells xenografted in athymic nu/nu mouse assessed as reduction in tumor size at 0.75 mg/kg, iv administered once a week for 2 weeks by digital caliper based analysis; format: functional, organism-based
NCI-H460 [29] = experiment: Antitumor activity against human NCI-H460 cells xenografted in athymic nu/nu mouse assessed as median tumor volume at 1.1 mg/kg, iv measured on day 7 by digital caliper based analysis; format: functional; details: time 7 day
Tubulin (Homo sapiens) [30] = biological target: T2, Tubulin (Homo sapiens); experiment: Disruption of microtubule network in human A549 cells assessed as reduction in mitotic spindle formation incubated for 24 hrs by immunofluorescence staining based epifluorescence microscopic analysis; format: cell-based
NCI-H460 [31] = experiment: Antitumor activity against human NCI-H460 cells xenografted in iv dosed athymic nu/nu mouse assessed as reduction in tumor volume administered once a week for 2 weeks and measured 2 to 3 times per week by digital caliper based analysis; format: functional, organism-based; details: dose 0.25-2.5 mg/kg
Tubulin (Homo sapiens) [32] = biological target: T2, Tubulin (Homo sapiens); experiment: Disruption of microtubule network in human A549 cells assessed as appearance of aberrant chromosome distribution incubated for 24 hrs by immunofluorescence staining based epifluorescence microscopic analysis; format: cell-based
[33] = Toxicity in athymic nu/nu mouse xenografted with human NCI-H460 cells assessed as clinical signs of systemic toxicity at 2.5 mg/kg, iv administered once a week for 2 weeks; format: organism-based; details: in vivo, 336 h
NCI-H460 [34] = experiment: Antitumor activity against human NCI-H460 cells xenografted in athymic nu/nu mouse assessed as median tumor volume at 1.7 mg/kg, iv measured on day 7 by digital caliper based analysis; format: functional; details: time 7 day
NCI-H460 [35] = experiment: Antitumor activity against human NCI-H460 cells xenografted in athymic nu/nu mouse assessed as reduction in tumor size at 1.1 to 2.5 mg/kg, iv administered once a week for 2 weeks by digital caliper based analysis; format: functional, organism-based; details: dose 1.1-2.5 mg/kg
[36] = Toxicity in athymic nu/nu mouse xenografted with human NCI-H460 cells assessed as reduction in body weight at 2.5 mg/kg, iv measured on day 5; format: organism-based; set-up: scale not given: the % may be the effect or the level left; details: in vivo, 120 h, time 5 day
Tubulin (Homo sapiens) [37] = biological target: T2, Tubulin (Homo sapiens); experiment: Disruption of microtubule network in human A549 cells assessed as induction of cellular landscape at 1 nM incubated for 24 hrs by immunofluorescence staining based epifluorescence microscopic analysis; format: cell-based
Tubulin (Homo sapiens) [38] = biological target: T2, Tubulin (Homo sapiens); experiment: Disruption of microtubule network in human A549 cells assessed as appearance of cellular phenotype with hypercondensed chromatin incubated for 24 hrs by immunofluorescence staining based epifluorescence microscopic analysis; format: cell-based
[39] = Inhibition of human recombinant alpha1beta3 tubulin expressed in Sf9 insect cells at 5 to 27.5 uM incubated for 70 mins by […]; details: dose 5-27.5 µM
NCI-H460 [40] = experiment: Antitumor activity against human NCI-H460 cells xenografted in athymic nu/nu mouse assessed as mean survival time at 1.7 mg/kg, iv administered once a week for 2 weeks; format: functional

Structure (SMILES): CCC[C@@H](NC(=O)[C@]1(C)CSC(/C(C)=N/O)=N1)c1cc(OC)cc(=O)o1
- IC50 (cells): 0.054 µM
- Kd (Tubulin [1]): 0.96 µM
- IC50 (A2780 [2]): 0.022 µM
- IC50 (A549 [3]): 0.023 µM
- IC50 (HeLa [4]): 0.028 µM
- IC50 (HeLa [5]): 0.019 µM

Structure (SMILES): COc1ccc(-c2ccc(OC)c(=O)cc2)c(OC)c1OC
- K (Tubulin (Bos taurus) [6]): 6 s⁻¹

Structure (SMILES): CC[C@]1(O)C[C@@H]2CN(CCc3c([nH]c4ccccc34)[C@@](C(=O)OC)(c3cc4c(cc3OC)N(C)[C@H]3[C@@](O)(C(=O)OC)[C@H](OC(C)=O)[C@]5(CC)C=CCN6CC[C@]43[C@@H]65)C2)C1 [VINBLASTINE]
- IC50 (cells): 0.07 µM
- IC50 (A2780 [2]): 0.0015 µM
- IC50 (A549 [3]): 0.0015 µM
- IC50 (HeLa [4]): 0.0044 µM
- IC50 (HeLa [5]): 0.00054 µM

Structure (SMILES): COc1cc2c(c(OC)c1OC)-c1ccc(OC)c(=O)cc1[C@@H](NC(C)=O)CC2 [COLCHICINE]
- IC50 (HeLa [7]): 0.019 µM
- IC50 (A549 [8]): 0.049 µM
- IC50 (HeLa [9]): 0.011 µM
- IC50 [10]: 0.537 µM

Structure (SMILES): COCc1cc2cccc(NC(C)=C3C(=O)CC(c4ccccc4)CC3=O)c2o1 (stereo not given)
- IC50 (A2780 [11]): 0.023 µM
- IC50 [10]: 0.039 µM
- Kd (Tubulin [12]): 0.003 µM

Structure (SMILES): COc1cc([C@@H]2c3cc4c(cc3[C@H](O)[C@H]3COC(=O)[C@H]23)OCO4)cc(OC)c1OC [PODOFILOX]
- IC50 (cells): 0.02 µM
- IC50 (A549 [3]): 0.016 µM
- IC50 (HeLa [4]): 0.018 µM
- IC50 (HeLa [5]): 0.0155 µM

Structure (SMILES): CC(=O)O[C@H]1C(=O)[C@@]2(C)[C@H]([C@H](OC(=O)c3ccccc3)[C@]3(O)C[C@H](OC(=O)[C@H](O)[C@@H](NC(=O)c4ccccc4)c4ccccc4)C(C)=C1C3(C)C)[C@]1(OC(C)=O)CO[C@@H]1C[C@@H]2O [PACLITAXEL]
- IC50 (cells): 0.392 µM
- IC50 (HeLa [4]): 0.02 µM
- IC50 (HeLa [5]): 0.0011 µM

Structure (SMILES): COc1ccc(/C=C\c2cc(OC)c(OC)c(OC)c2)cc1O
- Ka (Tubulin (Homo sapiens) [13]): 3 10^8/M

Structure (SMILES): COc1cc2cc(c1Cl)N(C)C(=O)C[C@H](OC(=O)[C@H](C)N(C)C(C)=O)[C@]1(C)O[C@H]1[C@H](C)[C@@H]1C[C@@](O)(NC(=O)O1)[C@H](OC)/C=C/C=C(\C)C2 [MAYTANSINE]
- IC50 (cells): 0.019 µM
- IC50 (A2780 [2]): 0.00074 µM
- IC50 (A549 [3]): 0.00059 µM
- IC50 (HeLa [4]): 0.0011 µM
- IC50 (HeLa [5]): 0.00033 µM

Structure (SMILES): CCC[C@@H](NC(=O)[C@]1(C)CSC(/C(C)=N/O)=N1)c1cc(OCC2CC2)cc(=O)o1
- Activity (Tubulin (Homo sapiens) [14]): Active
- MST (NCI-H460 [15]): 16 days
- IC50 (cells): 0.0032 µM
- Activity (NCI-H460 [16]): 10
- MST (NCI-H460 [17]): 21 days
- Activity (NCI-H460 [18]): 1395 mm3
- inhibition (Tubulin (Bos taurus) [19]): Dose-Dependent Effect
- Activity [20]: -2.9%
- Activity (NCI-H460 [21]): inactive
- Kd (Tubulin [1]): 0.02 µM
- MST (NCI-H460 [22]): 10.5 days
- Activity (Tubulin (Homo sapiens) [23]): Active
- Activity [24]: 11.2%
- Activity (NCI-H460 [25]): Active
- Activity (Tubulin (Bos taurus) [26]): 100%
- Activity (NCI-H460 [27]): 260.4 mm3
- IC50 (A2780 [2]): 0.0014 µM
- Activity (NCI-H460 [28]): inactive
- IC50 (A549 [3]): 0.0015 µM
- IC50 (HeLa [4]): 0.0013 µM
- Activity (NCI-H460 [29]): 947.3 mm3
- IC50 (HeLa [5]): 0.0016 µM
- Activity (Tubulin (Homo sapiens) [30]): Active
- Activity (NCI-H460 [31]): Dose-Dependent Effect
- Activity (Tubulin (Homo sapiens) [32]): Active
- Activity [33]: Non-Toxic
- Activity (NCI-H460 [34]): 580 mm3
- Activity (NCI-H460 [35]): Active
- Activity [36]: -4.5%
- Activity (Tubulin (Homo sapiens) [37]): Active
- Activity (Tubulin (Homo sapiens) [38]): Active
- inhibition [39]: Active
- MST (NCI-H460 [40]): 20 days
